# Laboratory results published in US8466181B2, “1,2,3-triazole-imidazole compounds” (Hoffmann-La Roche Inc., priority 2010, dated 2013).
# Target: T1, human GABA A receptor α5β3γ2 (GABA Aa5) (Homo sapiens, UniProt P18507+P31644)
# T1 construct: expressed in transfected cells; host or cells: HEK293 cells, transiently transfected; membranes prepared
# Assay: [3H]flumazenil competition binding, HEK293 cells expressing human receptors
# Conditions: not given
# Description: The ability of compounds present invention to bind to GABA A receptor subtypes was determined by competition for [^3H]flumazenil (85 Ci/mmol; Roche) binding to HEK293 cells expressing rat (stably transfected) or human (transiently transfected) receptors of composition α1β2/3γ2, α2β3γ2, α3β3γ2 and α5β3γ2.
# Cell pellets were suspended in Krebs-tris buffer (4.8 mM KCl, 1.2 mM CaCl2, 1.2 mM MgCl2, 120 mM NaCl, 15 mM Tris; pH 7.5; binding assay buffer), homogenized by polytron for ca. 20 sec on ice and centrifuged for 60 min at 4° C. (50000 g; Sorvall, rotor: SM24=20000 rpm). The cell pellets were resuspended in Krebs-tris buffer and homogenized by polytron for ca. 15 sec on ice. Protein was measured (Bradford method, Bio-Rad) and aliquots of 1 mL were prepared and stored at −80° C.
# Assays were incubated to equilibrium for 1 hour at 4° C. and harvested onto GF/C uni-filters (Packard) by filtration using a Packard harvester and washing with ice-cold wash buffer (50 mM Tris; pH 7.5). After drying, filter-retained radioactivity was detected by liquid scintillation counting.
# Ki values were calculated using Excel-Fit (Microsoft) and are the means of two determinations.
# Representative test results, obtained by the above described assay measuring binding affinity to HEK293 cells expressing human (h) receptors, are shown in Table 1 below.
row,SMILES,Ki [nM]
1,"CC(=O)c1ccc(-n2cnc(-c3c(-c4ccccc4F)nnn3C)c2)cc1 [Example 10, 1-(4-(4-(4-(2-Fluorophenyl)-1-methyl-1H-1,2,3-triazol-5-yl)-1H-imidazol-1-yl)phenyl)ethanone]",29.6

# Same assay, conditions: displacement of [3H]flumazenil 0.5 nM; HEK293 transiently transfected human receptors; means of two determinations; read-out: hKi (GABA Aa5)
row,SMILES,Ki [nM]
1,"CC(=O)c1ccc(-n2cnc(-c3c(-c4ccc(F)cc4)nnn3C)c2)cc1 [Example 1, 1-(4-{4-[5-(4-Fluoro-phenyl)-3-methyl-3H-[1,2,3]triazol-4-yl]-imidazol-1-yl}-phenyl)-ethanone]",27.2
2,"Cn1nnc(-c2ccccc2F)c1-c1cn(-c2ccc([N+](=O)[O-])cc2)cn1 [Example 9, 4-(2-Fluorophenyl)-1-methyl-5-(1-(4-nitrophenyl)-1H-imidazol-4-yl)-1H-1,2,3-triazole]",76.3
3,"Cc1nnn(-c2ccc(F)cc2)c1-c1cn(-c2ccc(C(=O)NC3(C)COC3)cn2)cn1 [Example 38, 6-(4-(1-(4-Fluorophenyl)-4-methyl-1H-1,2,3-triazol-5-yl)-1H-imidazol-1-yl)-N-(3-methyloxetan-3-yl)nicotinamide]",9.6
4,"CC(C)NC(=O)c1ccc(-n2cnc(-c3c(-c4ccc(F)cc4)nnn3C)c2)nc1 [Example 11, 6-{4-[5-(4-Fluoro-phenyl)-3-methyl-3H-[1,2,3]triazol-4-yl]-imidazol-1-yl}-N-isopropyl-nicotinamide]",14.7
5,"Cc1nnn(-c2ccc(F)cc2)c1-c1cn(-c2ccc(C(=O)NC3CCOCC3)cn2)cn1 [Example 37, 6-{4-[3-(4-Fluoro-phenyl)-5-methyl-3H-[1,2,3]triazol-4-yl]-imidazol-1-yl}-N-(tetrahydropyran-4-yl)-nicotinamide]",25.9
6,"Cc1nnn(-c2ccccc2F)c1-c1cn(-c2ccc(C(=O)N3CC4(COC4)C3)cn2)cn1 [Example 49, (6-(4-(1-(2-Fluorophenyl)-4-methyl-1H-1,2,3-triazol-5-yl)-1H-imidazol-1-yl)pyridin-3-yl)(2-oxa-6-azaspiro[3.3]heptan-6-yl)methanone]",90
7,"Cn1nnc(-c2ccccc2F)c1-c1cn(-c2ccc(C(=O)NC3CCOCC3)cn2)cn1 [Example 22, 6-(4-(4-(2-Fluorophenyl)-1-methyl-1H-1,2,3-triazol-5-yl)-1H-imidazol-1-yl)-N-(tetrahydro-2H-pyran-4-yl)nicotinamide]",43.3
8,"Cc1nnn(-c2ccccc2F)c1-c1cn(-c2ccc(C(=O)NC(C)(C)CO)cn2)cn1 [Example 47, 6-(4-(1-(2-Fluorophenyl)-4-methyl-1H-1,2,3-triazol-5-yl)-1H-imidazol-1-yl)-N-(1-hydroxy-2-methylpropan-2-yl)nicotinamide]",51.7
9,"Cn1nnc(-c2ccc(F)cc2)c1-c1cn(-c2ccc(C(=O)NC3(C)COC3)cn2)cn1 [Example 13, 6-{4-[5-(4-Fluoro-phenyl)-3-methyl-3H-[1,2,3]triazol-4-yl]-imidazol-1-yl}-N-(3-methyl-oxetan-3-yl)-nicotinamide]",14.6
10,"Cn1nnc(-c2ccccc2F)c1-c1cn(-c2ccc(C(=O)NC3(C)COC3)cn2)cn1 [Example 27, 6-(4-(4-(2-Fluorophenyl)-1-methyl-1H-1,2,3-triazol-5-yl)-1H-imidazol-1-yl)-N-(3-methyloxetan-3-yl)nicotinamide]",16.1
11,"COC(=O)c1ccc(-n2cnc(-c3c(-c4ccc(F)cc4)nnn3C)c2)cc1 [Example 2, 4-{4-[5-(4-Fluoro-phenyl)-3-methyl-3H-[1,2,3]triazol-4-yl]-imidazol-1-yl}-benzoic acid methyl ester]",41.2
12,"Cn1nnc(-c2ccc(F)cc2)c1-c1cn(-c2ccc(C(=O)NC3CCOCC3)cc2)cn1 [Example 4, 4-{4-[5-(4-Fluoro-phenyl)-3-methyl-3H-[1,2,3]triazol-4-yl]-imidazol-1-yl}-N-(tetrahydropyran-4-yl)-benzamide]",36.6
13,"Cc1nnn(-c2ccc(F)cc2)c1-c1cn(-c2ccc(C(=O)N3CCS(=O)(=O)CC3)cn2)cn1 [Example 44, (1,1-Dioxo-1,6-thiomorpholin-4-yl)-(6-{4-[3-(4-fluoro-phenyl)-5-methyl-3H-[1,2,3]triazol-4-yl]-imidazol-1-yl}-pyridin-3-yl)-methanone]",29
14,"Cc1nnn(-c2ccccc2F)c1-c1cn(-c2ccc(C(=O)NC3CCOCC3)cn2)cn1 [Example 46, 6-(4-(1-(2-Fluorophenyl)-4-methyl-1H-1,2,3-triazol-5-yl)-1H-imidazol-1-yl)-N-(tetrahydro-2H-pyran-4-yl)nicotinamide]",49

# Next, values leading:
row,Ki [nM],SMILES
1,75.1,"CC(C)NC(=O)c1ccc(-n2cnc(-c3c(-c4ccccc4Cl)nnn3C)c2)nc1 [Example 18, 6-(4-(4-(2-Chlorophenyl)-1-methyl-1H-1,2,3-triazol-5-yl)-1H-imidazol-1-yl)-N-isopropylnicotinamide]"
2,34.5,"COC(=O)c1ccc(-n2cnc(-c3c(C)nnn3-c3ccccc3F)c2)cc1 [Example 33, Methyl 4-(4-(1-(2-fluorophenyl)-4-methyl-1H-1,2,3-triazol-5-yl)-1H-imidazol-1-yl)benzoate]"
3,23.8,"Cn1nnc(-c2ccc(F)cc2)c1-c1cn(-c2ccc(C(=O)NC3(C)COC3)cc2)cn1 [Example 5, 4-{4-[5-(4-Fluoro-phenyl)-3-methyl-3H-[1,2,3]triazol-4-yl]-imidazol-1-yl}-N-(3-methyl-oxetan-3-yl)-benzamide]"
4,17.8,"Cc1nnn(-c2ccccc2F)c1-c1cn(-c2ccc(C(N)=O)cn2)cn1 [Example 48, 6-(4-(1-(2-Fluorophenyl)-4-methyl-1H-1,2,3-triazol-5-yl)-1H-imidazol-1-yl)nicotinamide]"
5,51.3,"Cn1nnc(-c2ccc(F)cc2)c1-c1cn(-c2ccc(C(=O)N3CC4(COC4)C3)cc2)cn1 [Example 6, (4-{4-[5-(4-Fluoro-phenyl)-3-methyl-3H-[1,2,3]triazol-4-yl]-imidazol-1-yl}-phenyl)-(2-oxa-6-aza-spiro[3.3]hept-6-yl)-methanone]"
6,49.2,"Cc1nnn(-c2ccc(F)cc2)c1-c1cn(-c2ccc(C(F)(F)F)cc2)cn1 [Example 31, 1-(4-Fluoro-phenyl)-4-methyl-5-[1-(4-trifluoromethyl-phenyl)-1H-imidazol-4-yl]-1H-[1,2,3]triazole]"
7,12.1,"Cn1nnc(-c2ccc(F)cc2)c1-c1cn(-c2ccc(C(N)=O)cn2)cn1 [Example 16, 6-(4-(4-(4-Fluorophenyl)-1-methyl-1H-1,2,3-triazol-5-yl)-1H-imidazol-1-yl)nicotinamide]"
8,32.4,"Cn1nnc(-c2ccccc2F)c1-c1cn(-c2ccc(C(=O)NN3CCOCC3)cn2)cn1 [Example 28, 6-(4-(4-(2-Fluorophenyl)-1-methyl-1H-1,2,3-triazol-5-yl)-1H-imidazol-1-yl)-N-morpholinonicotinamide]"
9,21.3,"Cn1nnc(-c2ccccc2F)c1-c1cn(-c2ccc(C(=O)NCC(C)(C)O)cn2)cn1 [Example 24, 6-(4-(4-(2-Fluorophenyl)-1-methyl-1H-1,2,3-triazol-5-yl)-1H-imidazol-1-yl)-N-(2-hydroxy-2-methylpropyl)nicotinamide]"
10,54.9,"CC(C)NC(=O)c1ccc(-n2cnc(-c3c(-c4ccccc4F)nnn3C)c2)nc1 [Example 23, 6-(4-(4-(2-Fluorophenyl)-1-methyl-1H-1,2,3-triazol-5-yl)-1H-imidazol-1-yl)-N-isopropylnicotinamide]"
11,17.9,"Cc1nnn(-c2ccccc2F)c1-c1cn(-c2ccc(C(=O)NC3(C)COC3)cn2)cn1 [Example 50, 6-(4-(1-(2-Fluorophenyl)-4-methyl-1H-1,2,3-triazol-5-yl)-1H-imidazol-1-yl)-N-(3-methyloxetan-3-yl)nicotinamide]"
12,21.1,"CC(C)NC(=O)c1ccc(-n2cnc(-c3c(-c4ccc(F)cc4)nnn3C)c2)cc1 [Example 3, 4-{4-[5-(4-Fluoro-phenyl)-3-methyl-3H-[1,2,3]triazol-4-yl]-imidazol-1-yl}-N-isopropyl-benzamide]"
13,10.9,"Cc1nnn(-c2ccccc2F)c1-c1cn(-c2ccc(C(=O)NC3CC3)cn2)cn1 [Example 52, N-Cyclopropyl-6-(4-(1-(2-fluorophenyl)-4-methyl-1H-1,2,3-triazol-5-yl)-1H-imidazol-1-yl)nicotinamide]"
14,84.3,"Cn1nnc(-c2ccccc2F)c1-c1cn(-c2ccc(C(F)(F)F)cc2)cn1 [Example 8, 4-(2-Fluorophenyl)-1-methyl-5-(1-(4-(trifluoromethyl)phenyl)-1H-imidazol-4-yl)-1H-1,2,3-triazole]"
15,50.5,"Cc1nnn(-c2ccccc2F)c1-c1cn(-c2ccc(C(=O)NN3CCOCC3)cn2)cn1 [Example 51, 6-(4-(1-(2-Fluorophenyl)-4-methyl-1H-1,2,3-triazol-5-yl)-1H-imidazol-1-yl)-N-morpholinonicotinamide]"
16,82.2,"Cn1nnc(-c2ccc(F)cc2)c1-c1cn(-c2ccc(C(F)(F)F)cn2)cn1 [Example 15, 2-{4-[5-(4-Fluoro-phenyl)-3-methyl-3H-[1,2,3]triazol-4-yl]-imidazol-1-yl}-5-trifluoromethyl-pyridine]"
17,26.3,"COC(=O)c1ccc(-n2cnc(-c3c(C)nnn3-c3ccc(F)cc3)c2)nc1 [Example 35, Methyl 6-(4-(1-(4-fluorophenyl)-4-methyl-1H-1,2,3-triazol-5-yl)-1H-imidazol-1-yl)nicotinate]"
